From patent US12221459B2, “Cancer treatment with (2,2-bishydroxymethyl) methylenecyclopropane nucleotides” (MEDIVIR AB, priority 2018, dated 2025)
Like-named read-outs stand apart in the source and are kept apart here.

Legend:
EOL-1 (human) = experiment: Leukemia cell line activity assay (Cell Counting Kit-8, 5 days), EOL-1; conditions: read-out: EOL.1 CC50
Description: (§1) Compounds of the invention were evaluated for activity against the leukemia cell lines THP-1, EOL-1 and MV4-11, using the following assay:
(§2) Test compounds were made up to 10 mM stock solution in DMSO
(§3) Leukemia cells (THP-1, EOL-1 and MV4-11) were grown in a cell culture flask 75 cm^2 with approximately 100 ml complete cell medium. The cells were counted using a Scepter-hand held automated cell counter, using 60 μm sensors (Millipore) and suspended in complete cell medium to 2×10^5 cells. 100 μl of the cell suspension were seeded to all wells (2×10^4 cells/well).
(§4) The compounds were tested in twelve concentrations, 10-fold serial dilutions, 50 μM-5×10^−10 μM.
(§5) 100 μl from a compound dilution plate were transferred to the cell assay plate=200 μl/well total volume and incubated for 5 days, at 37° C., 5% CO2 incubator.
(§6) After 5 days, 10l of KIT-8 was added and the culture was incubated for 3-4 hours, at 37° C., 5% CO2 incubator.
(§7) Plate were read in the spectrophotometer at wavelength 450 nm with a reference filter of 620 nm.
(§8) CC50 values are calculated by plotting the degree of inhibition (compared to the vehicle ctrl) against the logarithm of the compound concentration. Result values in the dilution series are fitted to a 4-parameter sigmoidal dose-response curve described by the expression: F(x)=D+(A−D)/(1+(x/C)^B) where: • A=Minimum • B=Slope. • C=Inflection point. The inflection point is defined as the point on the curve where the curvature changes direction or signs. • D=Maximum • F=fraction inhibition

[1] = tested on: THP-1 (human acute monocytic leukemia); experiment: Leukemia cell line activity assay (Cell Counting Kit-8, 5 days), THP-1
Description: as §1, §2, §3, §4, §5, §6, §7, §8

[2] = tested on: MV4-11 cells, human B-myelomonocytic leukemia; experiment: Leukemia cell line activity assay (Cell Counting Kit-8, 5 days), MV4-11
Description: as §1, §2, §3, §4, §5, §6, §7, §8

[3] = Structural integrity of triester phosphoroalaninates by LC MS over 22-29 days; format: physicochemical
Description: Instability of Triester Phosphoroalaninates
Intermediate compounds I-19 d2 and I-25 synthesised above are triesterphosphoro-alaninates resembling the prior art compound described in Yan et al, J Med Chem 2005 48 91-99:
The structural integrity of these model compounds was assessed by LC MS over a 22-29 day period, as follows: […]

[4] = Homo sapiens, THP-1, 120 h, read-out: THP-1 CC50, THP-1 cells, 5 days incubation
[5] = Homo sapiens, MV4-11, 120 h, read-out: MV4-11 CC50, MV4-11 cells, 5 days incubation
[6] = read-out: THP-1 CC50, THP-1 cells, 5 days incubation
[7] = read-out: MV4-11 CC50, MV4-11 cells, 5 days incubation

For `CCCC(CCC)COC(=O)[C@H](C)N[P@](=O)(OCC1(COC(=O)C(C)(C)C)C/C1=C/n1cnc2c(=O)[nH]c(N)nc21)Oc1ccccc1` (stereo partly drawn) [Example 38, ((Z)-2-((2-amino-6-oxo-1,6-dihydro-9H-purin-9-yl)methylene)-1-((((S)-(((S)-1-oxo-1-((2-propylpentyl)oxy)propan-2-yl)amino)(phenoxy)phosphoryl)ox)methyl)cyclopropyl)methyl pivalate], the CC50 (EOL-1 (human); Homo sapiens, EOL1, 120 h) was 210 nM, the CC50 [1, 4] was 190 nM and the CC50 [2, 5] was 310 nM.

`CCC[C@H](C)OC(=O)[C@H](C)N[P@](=O)(OC[C@]1(CO)C/C1=C/n1cnc2c(=O)[nH]c(N)nc21)Oc1ccc(Br)cc1` (single isomer, unassigned) [Intermediate I-19 d2] gave an LCMS purity ([3]; Day 0) of 96.86%, an LCMS purity ([3]; Day 5) of 94.32% and an LCMS purity ([3]; Day 14) of 88.76%. For the same compound, the LCMS purity ([3]; Day 22) was 73.76%.

With `CCC(CC)COC(=O)[C@H](CC(C)C)N[P@](=O)(OCC1(COC(=O)C(C)C)C/C1=C/n1ccc(N)nc1=O)Oc1ccccc1` (stereo partly drawn) [Example 34-2, 2-ethylbutyl((S)-(((Z)-2-((4-amino-2-oxopyrimidin-1(2H)-yl)methylene)-1-((isobutyryloxy)methyl)cyclopropyl)methoxy)(phenoxy)phosphoryl)-L-leucinate] the CC50 (EOL-1 (human); EOL-1 cells, 5 days incubation) was 170 nM, the CC50 [1, 6] was 340 nM and the CC50 [2, 7] was 440 nM.

Work on `CCCC(CCC)COC(=O)[C@H](C)N[P@](=O)(OC[C@@]1(COC(=O)[C@@H](N)C(C)C)C/C1=C/n1cnc2c(=O)[nH]c(N)nc21)Oc1ccccc1` [Example 1f-1, (S)-((S,Z)-2-((2-Amino-6-oxo-1H-purin-9(6H)-yl)methylene)-1-((((S)-(((S)-1-oxo-1-((2-propylpentyl)oxy)propan-2-yl)amino)(phenoxy)phosphoryl)oxy)methyl)cyclopropyl)methyl 2-amino-3-methylbutanoate] yielded a CC50 (EOL-1 (human); Homo sapiens, EOL1, 120 h) of 120 nM, a CC50 [1, 4] of 670 nM and a CC50 [2, 5] of 460 nM.

Work on `CCCC(=O)OCC1(CO[P@@](=O)(N[C@@H](C)C(=O)OCC(CCC)CCC)Oc2ccccc2)C/C1=C/n1ccc(N)nc1=O` (single isomer, unassigned) [Example 45-1] yielded a CC50 (EOL-1 (human); EOL-1 cells, 5 days incubation) of 59 nM, a CC50 [1, 6] of 190 nM and a CC50 [2, 7] of 180 nM.

`CCC[C@H](C)OC(=O)[C@H](C)N[P@](=O)(OC[C@@]1(COC(=O)C(C)C)C/C1=C/n1cnc2c(=O)[nH]c(N)nc21)Oc1ccccc1` [Example 6-2, ((S,Z)-2-((2-amino-6-oxo-1H-purin-9(6H)-yl)methylene)-1-((((S)-(((S)-1-oxo-1-((S)-pentan-2-yloxy)propan-2-yl)amino)(phenoxy)phosphoryl)oxy)methyl)cyclopropyl)methyl isobutyrate] showed a CC50 (EOL-1 (human); Homo sapiens, EOL1, 120 h) of 190 nM, a CC50 [1, 4] of 740 nM and a CC50 [2, 5] of 430 nM.

`CCCC(=O)OCC1(CO[P@@](=O)(N[C@@H](C)C(=O)O[C@@H](C)CCC)Oc2ccccc2)C/C1=C/n1cnc2c(=O)[nH]c(N)nc21` (stereo partly drawn) [Example 30-1, ((Z)-2-((2-amino-6-oxo-1,6-dihydro-9H-purin-9-yl)methylene)-1-((((S)-(((S)-1-oxo-1-(((S)-pentan-2-yl)ox)propan-2-yl)amino)(phenoxy)phosphoryl)oxy)methyl)cyclopropyl)methyl butyrate] gave a CC50 (EOL-1 (human); Homo sapiens, EOL1, 120 h) of 940 nM, a CC50 [1, 4] of 460 nM and a CC50 [2, 5] of 430 nM.

`CC(C)OC(=O)[C@H](C)N[P@](=O)(OC[C@@]1(CO)C/C1=C/n1cnc2c(=O)[nH]c(N)nc21)Oc1ccc(C2(C)CC2)cc1` [Intermediate I-25, (S)-Isopropyl 2-(((S)-(((S,Z)-2-((2-amino-6-oxo-1H-purin-9(6H)-yl)methylene)-1-(hydroxymethyl)cyclopropyl)methoxy)(4-(1-methylcyclopropyl)phenoxy)phosphoryl)amino)propanoate] gave an LCMS purity ([3]; Day 0) of 95.56%, an LCMS purity ([3]; Day 5) of 88.14% and an LCMS purity ([3]; Day 14) of 82.67%. It also gave an LCMS purity ([3]; Day 22) of 77.76% and an LCMS purity ([3]; Day 29) of 72.84%.
